From ChEMBL document CHEMBL1143531, “Synthesis, in vitro, and in vivo antibacterial activity of nocathiacin I thiol-Michael adducts” (2005)
In brackets after ≈: the same amount, converted by molar mass.

Columns and labels:
Type in all cases: functional
Streptococcus pneumoniae = experiment: In vitro minimum inhibitory concentration against penicillin resistant Streptococcus pneumoniae A28272
Mus musculus = experiment: In vivo protective dose required for mouse against systemic lethal […] infection; conditions: read-out: PD50
Staphylococcus aureus = experiment: In vitro minimum inhibitory concentration against methicillin sensitive […] A15090
Enterococcus faecalis = experiment: In vitro minimum inhibitory concentration against methicillin sensitive Enterococcus faecalis A20688

SMILES | MIC (Streptococcus pneumoniae) | ED50 (Mus musculus) | MIC (Staphylococcus aureus) | MIC (Enterococcus faecalis)
CO/C(C)=C1/NC(=O)C([C@@H](C)O)NC(=O)c2csc(n2)-c2cc(O)c(-c3nc(C(=O)NC(SC(CC(=O)O)C(=O)O)C(N)=O)cs3)nc2-c2csc(n2)[C@@H]2COC(=O)c3c4c5c(cccc5n3O)COC(=O)[C@@H](O[C@H]3C[C@](C)(O)[C@H](N(C)C)[C@H](C)O3)[C@@H](OC4)[C@H](NC(=O)c3csc1n3)c1nc(cs1)C(=O)N2 (some centres not stated) | 0.25 µg/mL (≈ 0.159 µM) | > 10 mg/kg | 4 µg/mL (≈ 2.54 µM) | 4 µg/mL (≈ 2.54 µM)
CCN(CC)CCSC(NC(=O)c1csc(-c2nc3c(cc2O)-c2nc(cs2)C(=O)NC([C@@H](C)O)C(=O)N/C(=C(\C)OC)c2nc(cs2)C(=O)N[C@@H]2c4nc(cs4)C(=O)N[C@@H](COC(=O)c4c5c6c(cccc6n4O)COC(=O)[C@@H](O[C@H]4C[C@](C)(O)[C@H](N(C)C)[C@H](C)O4)[C@H]2OC5)c2nc-3cs2)n1)C(N)=O (some centres not stated) | 0.015 µg/mL (≈ 0.00964 µM) | 1.1 mg/kg | 0.125 µg/mL (≈ 0.0803 µM) | 0.25 µg/mL (≈ 0.161 µM)
CO/C(C)=C1/NC(=O)C([C@@H](C)O)NC(=O)c2csc(n2)-c2cc(O)c(-c3nc(C(=O)NC(SCC(NC(C)=O)C(=O)O)C(N)=O)cs3)nc2-c2csc(n2)[C@@H]2COC(=O)c3c4c5c(cccc5n3O)COC(=O)[C@@H](O[C@H]3C[C@](C)(O)[C@H](N(C)C)[C@H](C)O3)[C@@H](OC4)[C@H](NC(=O)c3csc1n3)c1nc(cs1)C(=O)N2 (some centres not stated) | 0.125 µg/mL (≈ 0.0788 µM) | > 10 mg/kg | 2 µg/mL (≈ 1.26 µM) | 8 µg/mL (≈ 5.04 µM)
CO/C(C)=C1/NC(=O)C([C@@H](C)O)NC(=O)c2csc(n2)-c2cc(O)c(-c3nc(C(=O)NC(SC4CN5CCC4C5)C(N)=O)cs3)nc2-c2csc(n2)[C@@H]2COC(=O)c3c4c5c(cccc5n3O)COC(=O)[C@@H](O[C@H]3C[C@](C)(O)[C@H](N(C)C)[C@H](C)O3)[C@@H](OC4)[C@H](NC(=O)c3csc1n3)c1nc(cs1)C(=O)N2 (some centres not stated) | 0.25 µg/mL (≈ 0.161 µM) | 2.5 mg/kg | 2 µg/mL (≈ 1.29 µM) | 2 µg/mL (≈ 1.29 µM)
CO/C(C)=C1/NC(=O)C([C@@H](C)O)NC(=O)c2csc(n2)-c2cc(O)c(-c3nc(C(=O)NC(SCCN=C(N)N)C(N)=O)cs3)nc2-c2csc(n2)[C@@H]2COC(=O)c3c4c5c(cccc5n3O)COC(=O)[C@@H](O[C@H]3C[C@](C)(O)[C@H](N(C)C)[C@H](C)O3)[C@@H](OC4)[C@H](NC(=O)c3csc1n3)c1nc(cs1)C(=O)N2 (some centres not stated) | 2 µg/mL (≈ 1.3 µM) | – | 4 µg/mL (≈ 2.59 µM) | > 128 µg/mL
C=C(NC(=O)c1csc(-c2nc3c(cc2O)-c2nc(cs2)C(=O)N[C@@H]([C@@H](C)O)C(=O)N/C(=C(\C)OC)c2nc(cs2)C(=O)N[C@@H]2c4nc(cs4)C(=O)N[C@@H](COC(=O)c4c5c6c(cccc6n4O)COC(=O)[C@@H](O[C@H]4C[C@](C)(O)[C@H](N(C)C)[C@H](C)O4)[C@H]2OC5)c2nc-3cs2)n1)C(N)=O [MJ347-81F4 A] | 0.002 µg/mL (≈ 0.00139 µM) | 0.8 mg/kg | 0.007 µg/mL (≈ 0.00487 µM) | 0.03 µg/mL (≈ 0.0209 µM)
CO/C(C)=C1/NC(=O)C([C@@H](C)O)NC(=O)c2csc(n2)-c2cc(O)c(-c3nc(C(=O)NC(SC[C@@H]4NC(=O)NC4=O)C(N)=O)cs3)nc2-c2csc(n2)[C@@H]2COC(=O)c3c4c5c(cccc5n3O)COC(=O)[C@@H](O[C@H]3C[C@](C)(O)[C@H](N(C)C)[C@H](C)O3)[C@@H](OC4)[C@H](NC(=O)c3csc1n3)c1nc(cs1)C(=O)N2 (some centres not stated) | 0.03 µg/mL (≈ 0.0191 µM) | > 10 mg/kg | 4 µg/mL (≈ 2.55 µM) | 128 µg/mL (≈ 81.5 µM)
CO/C(C)=C1/NC(=O)C([C@@H](C)O)NC(=O)c2csc(n2)-c2cc(O)c(-c3nc(C(=O)NC(SCCc4cnccn4)C(N)=O)cs3)nc2-c2csc(n2)[C@@H]2COC(=O)c3c4c5c(cccc5n3O)COC(=O)[C@@H](O[C@H]3C[C@](C)(O)[C@H](N(C)C)[C@H](C)O3)[C@@H](OC4)[C@H](NC(=O)c3csc1n3)c1nc(cs1)C(=O)N2 (some centres not stated) | 0.015 µg/mL (≈ 0.00959 µM) | 4.4 mg/kg | 0.125 µg/mL (≈ 0.0799 µM) | 0.25 µg/mL (≈ 0.16 µM)
CO/C(C)=C1/NC(=O)C([C@@H](C)O)NC(=O)c2csc(n2)-c2cc(O)c(-c3nc(C(=O)NC(C(N)=O)S(=O)(=O)C4C5CCN4CC5)cs3)nc2-c2csc(n2)[C@@H]2COC(=O)c3c4c5c(cccc5n3O)COC(=O)[C@@H](O[C@H]3C[C@](C)(O)[C@H](N(C)C)[C@H](C)O3)[C@@H](OC4)[C@H](NC(=O)c3csc1n3)c1nc(cs1)C(=O)N2 (some centres not stated) | 0.06 µg/mL (≈ 0.0379 µM) | – | 0.5 µg/mL (≈ 0.316 µM) | 1 µg/mL (≈ 0.631 µM)
COCC(Cn1ccnc1)SC(NC(=O)c1csc(-c2nc3c(cc2O)-c2nc(cs2)C(=O)NC([C@@H](C)O)C(=O)N/C(=C(\C)OC)c2nc(cs2)C(=O)N[C@@H]2c4nc(cs4)C(=O)N[C@@H](COC(=O)c4c5c6c(cccc6n4O)COC(=O)[C@@H](O[C@H]4C[C@](C)(O)[C@H](N(C)C)[C@H](C)O4)[C@H]2OC5)c2nc-3cs2)n1)C(N)=O (some centres not stated) | 0.03 µg/mL (≈ 0.0188 µM) | 1.4 mg/kg | 0.25 µg/mL (≈ 0.157 µM) | 0.125 µg/mL (≈ 0.0783 µM)
CO/C(C)=C1/NC(=O)C([C@@H](C)O)NC(=O)c2csc(n2)-c2cc(O)c(-c3nc(C(=O)NC(SCCc4nnn[nH]4)C(N)=O)cs3)nc2-c2csc(n2)[C@@H]2COC(=O)c3c4c5c(cccc5n3O)COC(=O)[C@@H](O[C@H]3C[C@](C)(O)[C@H](N(C)C)[C@H](C)O3)[C@@H](OC4)[C@H](NC(=O)c3csc1n3)c1nc(cs1)C(=O)N2 (some centres not stated) | 0.25 µg/mL (≈ 0.161 µM) | > 10 mg/kg | 2 µg/mL (≈ 1.29 µM) | 32 µg/mL (≈ 20.6 µM)
CO/C(C)=C1/NC(=O)C([C@@H](C)O)NC(=O)c2csc(n2)-c2cc(O)c(-c3nc(C(=O)NC(SCCC(=O)O)C(N)=O)cs3)nc2-c2csc(n2)[C@@H]2COC(=O)c3c4c5c(cccc5n3O)COC(=O)[C@@H](O[C@H]3C[C@](C)(O)[C@H](N(C)C)[C@H](C)O3)[C@@H](OC4)[C@H](NC(=O)c3csc1n3)c1nc(cs1)C(=O)N2 (some centres not stated) | 0.01 µg/mL (≈ 0.00654 µM) | > 10 mg/kg | 1 µg/mL (≈ 0.654 µM) | –
CO/C(C)=C1/NC(=O)C([C@@H](C)O)NC(=O)c2csc(n2)-c2cc(O)c(-c3nc(C(=O)NC(SCCS(=O)(=O)[O-])C(N)=O)cs3)nc2-c2csc(n2)[C@@H]2COC(=O)c3c4c5c(cccc5n3O)COC(=O)[C@@H](O[C@H]3C[C@](C)(O)[C@H](N(C)C)[C@H](C)O3)[C@@H](OC4)[C@H](NC(=O)c3csc1n3)c1nc(cs1)C(=O)N2.[Na+] (some centres not stated) | 0.06 µg/mL | > 10 mg/kg | 4 µg/mL | 128 µg/mL
CO/C(C)=C1/NC(=O)C([C@@H](C)O)NC(=O)c2csc(n2)-c2cc(O)c(-c3nc(C(=O)NC(SCC(N)C(=O)O)C(N)=O)cs3)nc2-c2csc(n2)[C@@H]2COC(=O)c3c4c5c(cccc5n3O)COC(=O)[C@@H](O[C@H]3C[C@](C)(O)[C@H](N(C)C)[C@H](C)O3)[C@@H](OC4)[C@H](NC(=O)c3csc1n3)c1nc(cs1)C(=O)N2 (some centres not stated) | 2 µg/mL (≈ 1.29 µM) | – | 1 µg/mL (≈ 0.647 µM) | 4 µg/mL (≈ 2.59 µM)
CCN(CC)CCS(=O)(=O)C(NC(=O)c1csc(-c2nc3c(cc2O)-c2nc(cs2)C(=O)NC([C@@H](C)O)C(=O)N/C(=C(\C)OC)c2nc(cs2)C(=O)N[C@@H]2c4nc(cs4)C(=O)N[C@@H](COC(=O)c4c5c6c(cccc6n4O)COC(=O)[C@@H](O[C@H]4C[C@](C)(O)[C@H](N(C)C)[C@H](C)O4)[C@H]2OC5)c2nc-3cs2)n1)C(N)=O (some centres not stated) | 0.007 µg/mL (≈ 0.00441 µM) | 1.4 mg/kg | 0.06 µg/mL (≈ 0.0378 µM) | 0.03 µg/mL (≈ 0.0189 µM)
CO/C(C)=C1/NC(=O)C([C@@H](C)O)NC(=O)c2csc(n2)-c2cc(O)c(-c3nc(C(=O)NC(SCC(=O)O)C(N)=O)cs3)nc2-c2csc(n2)[C@@H]2COC(=O)c3c4c5c(cccc5n3O)COC(=O)[C@@H](O[C@H]3C[C@](C)(O)[C@H](N(C)C)[C@H](C)O3)[C@@H](OC4)[C@H](NC(=O)c3csc1n3)c1nc(cs1)C(=O)N2 (some centres not stated) | 0.125 µg/mL (≈ 0.0825 µM) | > 10 mg/kg | 2 µg/mL (≈ 1.32 µM) | 1 µg/mL (≈ 0.66 µM)
CO/C(C)=C1/NC(=O)C([C@@H](C)O)NC(=O)c2csc(n2)-c2cc(O)c(-c3nc(C(=O)NC(SCCP(=O)([O-])O)C(N)=O)cs3)nc2-c2csc(n2)[C@@H]2COC(=O)c3c4c5c(cccc5n3O)COC(=O)[C@@H](O[C@H]3C[C@](C)(O)[C@H](N(C)C)[C@H](C)O3)[C@@H](OC4)[C@H](NC(=O)c3csc1n3)c1nc(cs1)C(=O)N2.[Na+] (some centres not stated) | 0.25 µg/mL | – | 2 µg/mL | 32 µg/mL
CO/C(C)=C1/NC(=O)C([C@@H](C)O)NC(=O)c2csc(n2)-c2cc(O)c(-c3nc(C(=O)NC(SCCN(C)C)C(N)=O)cs3)nc2-c2csc(n2)[C@@H]2COC(=O)c3c4c5c(cccc5n3O)COC(=O)[C@@H](O[C@H]3C[C@](C)(O)[C@H](N(C)C)[C@H](C)O3)[C@@H](OC4)[C@H](NC(=O)c3csc1n3)c1nc(cs1)C(=O)N2 (some centres not stated) | 0.015 µg/mL (≈ 0.00981 µM) | 1 mg/kg | 0.125 µg/mL (≈ 0.0818 µM) | 0.25 µg/mL (≈ 0.164 µM)
